{"source": "patent US20070191324A1", "about": "“Methods for treatment or prophylaxis of aldosterone-mediated pathogenic effects in a subject using an epoxy-steroidal aldosterone antagonist” (priority 1999, published 2007)", "key": {"[1]": {"tested_on": "aortas of cholesterol-fed rabbits", "assay": "Endothelial function in diet induced atherosclerosis, aortic isometric tension and superoxide (Example A-10)", "type": "in vivo, New Zealand white rabbits", "settings": "50 mg/kg twice daily by gavage, 6 weeks", "procedure": "Methods: New Zealand white rabbits were randomized to four treatment groups. 32 Rabbits were placed on normal (NC) or 1% cholesterol chow (HC) for a duration of 8 weeks. […] Rabbits were euthanized at the end of 8 weeks and the aortas extracted for isometric tension studies and estimation of superoxide (O2^−) generation in vessel segments by lucigenin chemiluminescence (250 μM). Vessels were preconstricted with phenylephrine ([…]) to approximately 50% of peak constriction and dose responses to acetylcholine (Ach) and nitroglycerin (NTG) tested."}, "[2]": {"tested_on": "patients not controlled with ACE-I or ARB", "assay": "Co-administration of eplerenone with ACE-I or ARB in mild-moderate hypertension (Example D-9)", "type": "in vivo, human", "procedure": "Patients examined in the study were those who currently were treated with an ACE-I and/or ARB and who had DBP ≧95 mmHg and <110 mmHg and SBP <180 mmHg. Previous antihypertensive therapy was withdrawn except a fixed dose of single ACE-I or ARB."}, "[3]": {"tested_on": "black and white patients with mild-to-moderate hypertension", "settings": "for Active Renin (% change) / ΔDBP / ΔSBP: baseline to Week 16"}, "saline-drinking SHRSP": {"tested_on": "saline-drinking SHRSP", "assay": "Stroke and cerebrovascular damage in saline-drinking SHRSP (Example A-7)", "type": "in vivo, rat", "settings": "100 mg/kg/day, up to 18.5 weeks of age", "source_text": "Fifteen male, 9 weeks of age, saline-drinking SHRSP were included in the experiment. […] A-12). […] Using a semi-quantitative scoring system from 0-4 for cerebral injury (FIG."}, "[4]": {"tested_on": "patients with hypertension and left ventricular hypertrophy", "assay": "Eplerenone, enalapril and combination in left ventricular hypertrophy, 9 months (Examples A-15, D-4)", "type": "in vivo, human", "source_text": "Table […] illustrates forth the above-described dosing scheme. […] Additional laboratory assessments of blood for clinical safety will be done monthly. Routine urinalysis will be done every three months. […] A blood sample for genotyping will be collected at Week 0. At screening and at Month 9, a 12-lead ECG and physical examination will be done. […] In case of early termination, an MRI and blood sample for TSH will be done for those patients who have received double-blind treatment for at least three months. At Weeks 0, 12 and Months 6 and 9, pharmacoeconomic data will be collected on all patients. The primary measure of efficacy is the change from baseline in LVM, as assessed by MRI, in the eplerenone group versus the enalapril group. […] Secondary measures of efficacy will be the following: […] (3) aortic compliance and ventricular filling parameters; and (4) special studies (PIIINP, microalbuminuria, PAI, and tPA). Additionally, the long-term safety and tolerability of the three treatment groups will be compared. […] The study design is illustrated in FIG. D-10. […] Left ventricular mass (LVM) (assayed by MRI), BP, collagen turnover, and tolerability were assessed at the 9-month endpoint."}, "human subject": {"tested_on": "human subject", "assay": "Blood pressure, plasma renin activity and serum aldosterone as a function of eplerenone dose (FIG. 10-12)", "type": "in vivo", "settings": "increasing doses", "source_text": "For example, appropriate dosing can be determined by monitoring systolic blood pressure. […] Accordingly, subjects can be treated with doses of one or more epoxy-steroidal compounds according to the present invention by increasing doses of such compounds in a step-wise manner until a minimal levels of systolic blood pressure decrease are achieved while, at the same time, also maintaining serum levels of potassium within the normal range. Similarly, appropriate dosing can also be determined by monitoring diastolic blood pressure. […] Accordingly, subjects can be treated with doses of one or more epoxy-steroidal compounds according to the present invention by increasing doses of such compounds in a step-wise manner until a minimal level of diastolic blood pressure change are achieved while, at the same time, also maintaining serum levels of potassium within the normal range. Appropriate dosing can also be determined by monitoring plasma renin activity. […] Accordingly, subjects can be treated with doses of one or more epoxy-steroidal compounds according to the present invention by increasing doses of such compounds in a step-wise manner until the desired level of plasma renin activity is achieved while, at the same time, maintaining serum levels of potassium within the normal range. Appropriate dosing can also be determined by monitoring serum aldosterone levels. […] Accordingly, subjects can be treated with doses of one or more epoxy-steroidal compounds according to the present invention by increasing doses of such compounds in a step-wise manner until the desired level of serum aldosterone is achieved while, at the same time, also maintaining serum levels of potassium within the normal range."}, "[5]": {"tested_on": "patients uncontrolled with BB or CCB monotherapy", "assay": "Eplerenone co-administration with CCB or beta-blocker, 8 weeks (Example D-10)", "type": "in vivo, human", "settings": "for Diastolic Blood Pressure Responder Rates, Percentage of Patients Responding: seDBP <90 mmHg or ≧10 mmHg reduction", "procedure": "This was a multicenter, double-blind, randomized, placebo-controlled, placebo run-in, parallel-group study. […] The dose was to be increased only once during the study. […] Study assessments at protocol-specified timepoints included BP, heart rate, clinical laboratory analyses, ECG, and concomitant medications. Throughout the study, safety was assessed by routine clinical laboratory analyses, vital signs, physical examinations, 12-lead ECG, and monitoring of adverse events. […] The study was designed to include 60 randomized patients in each group and each cohort."}, "[6]": {"settings": "addition of eplerenone, 8 weeks"}, "[7]": {"settings": "9-month endpoint, forced titration"}, "[8]": {"settings": "9-month endpoint, EPL 200 mg, ENAL 40 mg, EPL 200 mg/ENAL 10 mg"}, "[9]": {"settings": "eplerenone 50-100 mg QD, 8 weeks"}}, "note": "Where two headings read alike, the source gives them in different places."}
{"smiles": "COC(=O)[C@@H]1CC2=CC(=O)CC[C@]2(C)[C@@]23O[C@@H]2C[C@@]2(C)[C@@H](CC[C@@]24CCC(=O)O4)[C@H]13", "note": "[Eplerenone, Pregn-4-ene-7,21-dicarboxylic acid, 9,11-epoxy-17-hydroxy-3-oxo-, γ-lactone, methyl ester, (7α, 11α, 17β)-]", "values": [{"measurement": "ED50 Ach", "setting": "[1]; 1% cholesterol chow", "value": 68, "unit": "nM"}, {"measurement": "ED50 NTG", "setting": "[1]; 1% cholesterol chow", "value": 10, "unit": "nM"}, {"measurement": "ED50 Ach", "setting": "[1]; normal chow", "value": 32, "unit": "nM"}, {"measurement": "ED50 NTG", "setting": "[1]; normal chow", "value": 5.7, "unit": "nM"}, {"measurement": "laboratory abnormalities, K+, adverse events", "setting": "[2]; addition of eplerenone to ACE-I or ARB", "value": "No significant increase in relevant laboratory abnormalities"}, {"measurement": "SBP & DBP in patients currently treated with ARB", "setting": "[2]; [6]", "value": "Significant reductions in SBP & DBP"}, {"measurement": "SBP in patients currently treated with ACE-I", "setting": "[2]; [6]", "value": "Significant reductions in SBP"}, {"measurement": "heart rate", "setting": "[2]; either group", "value": "No change in heart rate"}, {"measurement": "treatment of mild-to-moderate hypertension in black hypertensive patients", "setting": "[3]; 16 weeks", "value": "superior to losartan"}, {"measurement": "Active Renin (% change)", "setting": "[3]; All Patients", "value": "+45.6%"}, {"measurement": "ΔDBP", "setting": "[3]; All Patients", "value": "−10.3", "unit": "mmHg"}, {"measurement": "ΔSBP", "setting": "[3]; All Patients", "value": "−12.8", "unit": "mmHg"}, {"measurement": "Active Renin (% change)", "setting": "[3]; Black Patients", "value": "+39.3%"}, {"measurement": "ΔDBP", "setting": "[3]; Black Patients", "value": "−10.2", "unit": "mmHg"}, {"measurement": "ΔSBP", "setting": "[3]; Black Patients", "value": "−13.5", "unit": "mmHg"}, {"measurement": "adjusted mean percent change from baseline in UACR", "setting": "[3]; Week 16, EPL 50-200 mg QD, LOS 50-100 mg QD", "value": "−21.6", "unit": "%"}, {"measurement": "Active Renin (% change)", "setting": "[3]; White Patients", "value": "+57.1%"}, {"measurement": "ΔDBP", "setting": "[3]; White Patients", "value": "−11.1", "unit": "mmHg"}, {"measurement": "ΔSBP", "setting": "[3]; White Patients", "value": "−12.3", "unit": "mmHg"}, {"measurement": "safety and tolerability", "setting": "[3]; human, in vivo", "value": "safe and well-tolerated"}, {"measurement": "stroke signs", "setting": "saline-drinking SHRSP", "value": "no signs of stroke"}, {"measurement": "DBP Adjusted mean change", "setting": "[4]; [7]", "value": "−10.8", "unit": "mmHg"}, {"measurement": "SBP Adjusted mean change", "setting": "[4]; [7]", "value": "−21.0", "unit": "mmHg"}, {"measurement": "decrease from baseline in UACR", "setting": "[4]; [8]", "value": "−28.7", "unit": "%"}, {"measurement": "decrease from baseline in collagen turnover", "setting": "[4]; [8]", "value": "−7.3", "unit": "%"}, {"measurement": "patients experiencing coughing", "setting": "[4]; 9-month study", "value": 3.1, "unit": "%"}, {"measurement": "LVM Adjusted mean change [g (SE)]", "setting": "[4]; left ventricular mass by MRI, 9-month endpoint, forced titration (EPL 50-200 mg, ENAL 10-40 mg)", "value": "−14.5 (3.36) g"}, {"measurement": "regressing LVH and reducing collagen turnover", "setting": "[4]; monotherapy", "value": "as effective as enalapril monotherapy"}, {"measurement": "systolic blood pressure as a function of dose", "setting": "human subject; FIG. 10", "value": "decreased systolic blood pressure"}, {"measurement": "diastolic blood pressure as a function of dose", "setting": "human subject; FIG. 11", "value": "decreased diastolic blood pressure"}, {"measurement": "plasma renin activity as a function of dose", "setting": "human subject; FIG. 12", "value": "increased levels of plasma renin activity"}, {"measurement": "serum aldosterone as a function of dose", "setting": "human subject; FIG. 12", "value": "increased levels of serum aldosterone"}, {"measurement": "Diastolic Blood Pressure Responder Rates, Percentage of Patients Responding", "setting": "[5]; BB Cohort, Week 2", "value": "48 (69.6%)"}, {"measurement": "Diastolic Blood Pressure Responder Rates, Percentage of Patients Responding", "setting": "[5]; BB Cohort, Week 4", "value": "53 (76.8%)"}, {"measurement": "Diastolic Blood Pressure Responder Rates, Percentage of Patients Responding", "setting": "[5]; BB Cohort, Week 6", "value": "56 (81.2%)"}, {"measurement": "Diastolic Blood Pressure Responder Rates, Percentage of Patients Responding", "setting": "[5]; BB Cohort, Week 8", "value": "52 (75.4%)"}, {"measurement": "Diastolic Blood Pressure Responder Rates, Percentage of Patients Responding", "setting": "[5]; CCB Cohort, Week 2", "value": "40 (60.6%)"}, {"measurement": "Diastolic Blood Pressure Responder Rates, Percentage of Patients Responding", "setting": "[5]; CCB Cohort, Week 4", "value": "51 (76.1%)"}, {"measurement": "Diastolic Blood Pressure Responder Rates, Percentage of Patients Responding", "setting": "[5]; CCB Cohort, Week 6", "value": "55 (82.1%)"}, {"measurement": "Diastolic Blood Pressure Responder Rates, Percentage of Patients Responding", "setting": "[5]; CCB Cohort, Week 8", "value": "48 (71.6%)"}, {"measurement": "safety and tolerability", "setting": "[5]; add on anti-hypertensive agent", "value": "safe and well tolerated"}, {"measurement": "responders (seDBP <90 mmHg or ≧10 mmHg reduction from Baseline), CCB cohort", "setting": "[5]; each timepoint, vs placebo", "value": "more patients who received eplerenone responded to treatment"}, {"measurement": "responders (seDBP <90 mmHg or ≧10 mmHg reduction from Baseline), BB cohort", "setting": "[5]; each timepoint, vs placebo (p ≦0.011)", "value": "significantly greater proportions of patients who received eplerenone responded to treatment"}, {"measurement": "DBP and SBP, addition to a BB", "setting": "[5]; [9]", "value": "efficacious in reducing DBP and SBP"}, {"measurement": "SBP, addition to a CCB", "setting": "[5]; [9]", "value": "efficacious in reducing SBP"}]}
